According to article PMC4794652, “Identification of E-cadherin signature motifs functioning as cleavage sites for Helicobacter pylori HtrA” (Scientific Reports, 2016):
Entries after “also recorded” stand apart in the source; their conditions may differ. No end group written: not given here.

Experiments:
H. pylori HtrA [1] = test: Competition experiment: interference with P1-mediated HtrA inhibition (rCdh1 cleavage, Western blot); format: biochemical; details: 100 μM peptides, 50 ng rCdh1, 200 ng rHtrA, 16 h, 37 °C, in words (Fig. S4B)
Method: (§1) Proteins were separated by SDS PAGE and analysed by Western blot using specific antibodies against HtrA[21], the extracellular domains EC5 (H108, Santa Cruz Biotechnology and ab40772, Abcam), EC1 (SHE78-7, Invitrogen) and EC2 (HecD1, Calbiochem) of E-cadherin, or the intracellular domain (24E10, Cell Signaling). His6-tagged proteins were analysed using an anti-His5-antibody (Qiagen). GAPDH (Cell Signaling) and β-actin (Sigma) were detected as loading controls. Where indicated, signals of protein bands were quantified using the ImageLab software (BioRad). Graphical presentation and statistical evaluations (Student’s t-test) were performed with GraphPad Prism 5 and p-values of ***p ≤ 0.001, **p ≤ 0.01 and *p ≤ 0.05 were considered statistically significant.
Purification of recombinant H. pylori HtrA and in vitro cleavage assays have been described elsewhere. […]
Figure S4. […] (A) Synthesized peptides based on the most frequent detected peptide during label-free mass spectrometry-based proteomic analysis. […] The cleavage fragments were analyzed by Western blot and detected using an antibody against the EC5. (D) Quantitative analysis of the relative amount of β-actin in whole cell lysates (WCL) of the H. pylor i-infected cells by blot densitometry from […]
1 Niessen, C. M. & Gumbiner, B. M. Cadherin-mediated cell sorting not determined by binding or […]

H. pylori HtrA [2] = test: In vitro HtrA-mediated E-cadherin (rCdh1) cleavage, inhibition by peptides (Western blot); format: biochemical
Method: as §1
Purification of recombinant H. pylori HtrA and in vitro cleavage assays have been described elsewhere. Briefly, 200 ng recombinant HtrA was incubated with 50 ng recombinant hCdh1 (R&D Systems) in 50 mM HEPES pH 7.4 and 100 μM EDTA for 16 h (or for the indicated time periods) at 37 °C. Where indicated, test peptides were added.

[3] = system: HtrA wild-type (H. pylori); test: Direct peptide binding to immobilised HtrA by surface plasmon resonance (SPR); details: for concentration-dependent SPR binding to HtrA, C-terminal carboxyl vs amide / direct binding to immobilised HtrA (SPR response): SPR-2, 25 °C, 25 μl/min; for concentration-dependent SPR binding to HtrA, C-terminal carboxyl vs amide: HBS-P, in words (Fig. 4D, S3B, S3C); for direct binding to immobilised HtrA (SPR response): HBS-P (10 mM HEPES-buffered saline, 150 mM NaCl, 0.005% Tween), against significance threshold, in words (Fig. 4C)
Method: Affinity studies were performed on a Sierra Sensors GmbH SPR-2 instrument. Measurements were performed at 25 °C with a flow rate of 25 μl/min. Carboxymethyl dextran matrix high-density sensor chips (SPR-2 Affinity Sensor HC, batch 10-BC-04-154-A, Sierra Sensors) were used to immobilise 20 μg/ml HtrA wild-type (wt) in 10 mM HEPES (HEPES buffer 1 M solution, pH 7.3, Fisher Scientific) by adding 198 μl amine coupling with an activation solution (200 mM N-ethyl-3-(3-dimethylaminopropyl)-carbodiimide [EDC] and 50 mM N-hydroxysuccinimide [NHS]). The SPR sensor surface was loaded with 100 μl protein and subsequently treated by injecting 192 μl of 1 M ethanolamine at pH 8.5 for inactivation of excess coupling groups. HBS-P (10 mM HEPES-buffered saline, 150 mM NaCl, 0.005% Tween) served as running and sample buffer for peptide measurements. Peptide samples were directly dissolved in HBS-P buffer. The experiments with the non-peptidic compounds were performed utilising HBS-PD running buffer (10 mM HEPES-buffered saline with 3% DMSO, 150 mM NaCl, 0.005% Tween).

[4] = system: H. pylori transmigration across MKN-28 cells; test: Transmigration of H. pylori across polarised MKN-28 cell monolayer (transwell filter assay); format: cell-based, H. pylori; human (MKN-28 cells); details: 100 μM, 200 μM, 500 μM P1; MOI 50; cfu from basal chamber; n = 3, mean ± std dev; in words (Fig. 5C)
From the text: (§2) The human gastric adenocarcinoma cell line AGS is E-cadherin-negative and was derived from an adenocarcinoma of the stomach of a person (ECACC, 89090402). AGS cells expressing hCdh1 were generated by transfection using a plasmid containing E-cadherin wild-type cDNA[50] which has been kindly provided by Rohan D. Teasdale (University of Queensland, Australia). E-cadherin-positive MKN-28 cells (JCRB, 0253, obtained from the Max-Planck Institute for Infection Biology) were originally described as being isolated from a moderately differentiated tubular adenocarcinoma and have been frequently used to study E-cadherin-dependent processes. The gastric epithelial NCI-N87 cells (ATCC, CRL-5822) were included as an additional E-cadherin-expressing cell line[24] and were derived from metastasis in the liver. All cells have been described previously[24][51] and were grown in RPMI 1640 medium containing 4 mM glutamine (Invitrogen) and 10% FCS (Sigma) in a humidified atmosphere at 37 °C. […] Adherence of H. pylori was quantitated in a cfu (colony-forming unit) assay. […] The number of cfu was determined by growth on agar plates for 72 h. […] The number of transmigrated bacteria was determined as cfu by taking aliquots from the basal chambers. […]

[5] = system: HtrA in H. pylori-infected AGS cells; test: Inhibition of HtrA in H. pylori-infected AGS cells transfected with hCdh1 (formation of 90 kDa hCdh1 NTF fragment); format: cell-based, H. pylori; human (AGS cells); details: transfected AGS cells expressing hCdh1, H. pylori infection 16 h, 50 μl supernatant; blot densitometry, three independent experiments; in words (Fig. 5B)
Method: Figure 5 Inhibition of HtrA-mediated E-cadherin cleavage. (A) 50 ng rCdh1 was incubated with 200 ng HtrA and indicated concentrations of P1. rCdh1 fragments and HtrA were detected using specific antibodies. (B) Transfected AGS cells expressing hCdh1 were infected with H. pylori (Hp) or left untreated (–) for 16 h. 50 μl aliquots of the supernatants were separated by SDS PAGE and blotted onto membranes. The 90 kDa hCdh1^NTF fragment was detected by Western blots. The relative amount of hCdh1^NTF fragment was quantified by blot densitometry from three independent experiments. […] (C) Polarised MKN-28 cells grown on transwell filters were infected with H. pylori in the presence and absence of peptide P1 at different concentrations (100 μM, 200 μM, 500 μM). Bacteria that had transmigrated across the MKN-28 monolayer on the filter were counted (n = 3, mean ± std dev).
The human gastric adenocarcinoma cell line AGS is E-cadherin-negative and was derived from an adenocarcinoma of the stomach of a person (ECACC, 89090402). […] Adherence of H. pylori was quantitated in a cfu (colony-forming unit) assay. […] The number of cfu was determined by growth on agar plates for 72 h. […] The number of transmigrated bacteria was determined as cfu by taking aliquots from the basal chambers. […]

[6] = system: HtrA in H. pylori infections of several other cell lines; test: Inhibition of hCdh1 NTF formation in H. pylori infections of several other cell lines; format: cell-based; details: different infection doses, data not shown, in words
From the text: as §2

“TGTLLLI [Peptide P1_NT, short peptide P1_NT, contains the hydrophobic amino acid stretch TGTLLLI]” was tested, and the “interference with P1-mediated HtrA inhibition” value (H. pylori HtrA [1]) was “None of these peptides blocked HtrA-induced E-cadherin cleavage or interfered with P1-mediated HtrA inhibition” and the “blocking of HtrA-induced E-cadherin cleavage, 7-residue N-terminal peptides” value (H. pylori HtrA [2]; 100 μM peptide, 50 ng rCdh1, 200 ng rHtrA, 16 h, 37 °C, in words (Fig. S4B)) was “None of these peptides blocked HtrA-induced E-cadherin cleavage”.

For “P1-NH2: P1 with a C-terminal alpha-amide (TGTLLLILSDVNDNAPIPEPR-NH2) [Peptide P1-NH2]”, the “concentration-dependent SPR binding to HtrA, C-terminal carboxyl vs amide” value [3] was “concentration-dependent binding”.

With TGTLLLILSDVNDNAPIPEPR [Peptide P1] the “H. pylori transmigration across polarised MKN-28 monolayer” value [4] was “strong concentration-dependent reduction of H. pylori transmigration; also recorded: inhibition of H. pylori transmigration”, the “direct binding to immobilised HtrA (SPR response)” value [3] was “strong binding” and the “concentration-dependent SPR binding to HtrA, C-terminal carboxyl vs amide” value ([3]; listed as P1-OH) was “concentration-dependent binding; also recorded: stronger SPR signals; also recorded: greater SPR response than its amide counterpart”. For the same substance, the “binding specificity for HtrA” value ([3]; in words) was “binds with high specificity”, the “formation of hCdh1 NTF fragment (bioactivity in H. pylori-infected AGS cells)” value [5] was “significant dose-dependent decrease in the formation of the hCdh1^NTF; also recorded: weaker, but still significant at higher concentrations” and the “decrease in formation of hCdh1 NTF in other cell lines and infection doses” value [6] was “This effect was also observed in H. pylori infections of several other cell lines and at different infection doses”. The “inhibition of in vitro HtrA-mediated E-cadherin cleavage” value (H. pylori HtrA [2]; 100 μM peptide, 200 ng HtrA, 50 ng rCdh1, 50 mM HEPES pH 7.4, 100 μM EDTA, 16 h, 37 °C, Western blot, in words (Fig. 4A,B)) was “effectively inhibited in vitro HtrA-mediated E-cadherin cleavage; also recorded: efficiently inhibited HtrA-mediated E-cadherin cleavage”, the “inhibition of HtrA-mediated rCdh1 cleavage, concentration dependence” value (H. pylori HtrA [2]; indicated concentrations of P1, 50 ng rCdh1, 200 ng HtrA, Western blot, in words (Fig. 5A)) was “strongly inhibited HtrA-mediated rCdh1 cleavage in a concentration-dependent manner” and the “inhibition of HtrA-mediated E-cadherin cleavage in vitro (summary)” value (H. pylori HtrA [2]; summary statement without concentration, in words) was “efficiently blocked E-cadherin cleavage in vitro”.

For NDNAPIPEPR [Peptide P5], the “direct binding to immobilised HtrA (SPR response)” value [3] was “positive binding response above the significance threshold”.
